Assay results taken from patent US20120196766A1, “Therapeutic Use of Farnesyltransferase Inhibitors and Methods of Monitoring the Efficacy Thereof” (priority 2004, published 2012).

Key:
THP-1 cells [1] = assay: Reverse transcriptase and real-time quantitative PCR of LPS-induced transcription in THP-1 cells; assay type: cell-based, Human
Description: THP-1 cells were cultured in RPMI1640 medium, supplemented with 10% FBS/100 units/ml Penicillin/10 μg/ml Streptomycin at 37° C., under 5% CO2. […] For the untreated control group (no LPS, no compound) and LPS alone group, equivalent volumes of DMSO were added to the medium. Cells were cultured at 37° C. and pellets were collected at 0 hr, 1 hr, 3 hr, 6 hr, 12 hr & 24 hr. Cell pellets were stored at −80° C. if RNA isolation was not conducted immediately. For experiments to study cytokine secretion in culture supernatants, THP-1 cells were washed twice with PBS, resuspended at 3.4×10^5/ml and cultured in 96-well plates at 250 μL, per well at 37° C. […] Supernatants were collected at different time points as indicated in the figures and were kept at ≦−20° C. until analysis of cytokine production.
Total RNA was isolated using RNeasy mini kit from QIAGEN (Valencia, Calif.) according to the manufacturer's instructions. RNA samples were stored at −80° C.
Two to three micrograms of DNase-treated total RNA were reverse transcribed to cDNA using the Transcriptor First Strand cDNA Synthesis Kit (Roche Diagnostics Corporation, Indianapolis, Ind.) according to the instructions.
Real-time PCR was carried out with the LightCycler FastStart DNA Master^plus SYBR Green I kit (Roche Diagnostics) according to the manufacturer's instructions.
The PCR profile was as follows: (i) denaturation at 95° C. for 10 min. (ii) 45 cycles of 0 s at 95° C., 5 s at 54-58° C. (depending on Tm of the primers), 6-16 s (determined by the length of amplicon) at 72° C. (iii) melting curves for 0 s at 95° C., 15 s at 65° C. and 0 s at 95° C. (iv) cooling at 40° C. for 30 s. Transition rates were: 20° C./s for all steps except 0.1° C./s for 95° C. segment 3 of the melting curves.
For data analysis, the baseline adjustment was carried out in the “arithmetic” mode, and the fluorescence curve analysis was carried out in the “Second Derivative Maximum” mode of the LightCycler™ software (Version 3.5).
The primers used for real-time PCR were as follows (5′ to 3′): […]

THP-1 cells [2] = assay: Inhibition of LPS-induced IL-6 release in THP-1 cells, concentration series; assay type: cell-based; settings: Homo sapiens, 100 ng/ml LPS, 0.5% FBS, supernatants at 48 hr, read-out: IC50 for inhibition of LPS-induced IL-6 secretion
Description: THP-1 cells at 3.4×10^5/ml were cultured in 96-well plates in 0.5% FBS/RPMI 1640, in the absence or presence of 100 ng/ml LPS, plus or minus tipifarnib (starting from 5 μM, followed by 3-fold series dilution). The concentrations of tipifarnib were: 5 μM, 1.67 μM, 0.56 μM, 0.19 μM and 0.06 μM. Supernatants were collected at 48 hr. IL6 was quantified using ELISA kit from R&D Systems.
Medium components were certified to contain less than 0.3 endotoxin units/ml. THP-1 cells at 3.4×10^5/ml were cultured in 96-well plates in 0.5% FBS/RPMI 1640, in the absence or presence of 100 ng/ml LPS plus or minus tipifarnib (starting from 5 μM, followed by 3-fold series dilution). The concentrations of tipifarnib were: 5 μM, 1.67 μM, 0.56 μM, 0.19 μM and 0.06 μM. Supernatants were collected at 48 hr. IL6 was tested using ELISA kit from R&D Systems.

human PBMC = assay: LPS-induced cytokine production in human PBMC; assay type: cell-based
Description: Human IL-6, IL18, IL1β, MCP-1, MMP-9, and mouse IL-6, IL18, TNFα, MCP-1 and IL-1β were measured with ELISA kits (R&D Systems) according to the manufacturer's instructions.
Heparinized human blood (25 ml) from a healthy donor was overlaid into a 50 ml conical tubes containing 20 ml Ficoll-Paque, and centrifuged for 20 min at 2000 rpm at room temperature and then allowed to stop without using the brake on the centrifuge. The upper layer was aspirated, leaving the mononuclear cell layer undisturbed at the interface. Cells were carefully transferred the to a new […] conical tube. The conical tube was filled with PBS, mixed and centrifuged at 1500 rpm for 15 minutes at room temperature. The supernatant was carefully and completely removed. The cell pellet was resupended in 50 ml of PBS and centrifuged at 1500 rpm for 5 minutes. This wash step was repeated once more. The cells were counted and resuspended cells at 1.7×10^6/ml in low-endotoxin RPMI1640/10% FBS.
Human PBMC (180 μl at 1.7×10^6/ml) were pipetted into each well of a 96-well plate. […] Cells were incubated at 37° C., under 5% CO2 for 1 hour, then 10 μl LPS (diluted in medium) were added per well to reach a final concentration of 10 ng/ml. Cells were cultured at 37° C., under 5% CO2. Supernatants were collected at 16 hours, 24 hours and 40 hours of LPS treatment, and IL-6 secretion was quantified.

cachexia = settings: US 2004/0157773, WO 02/085364; cited from earlier work
[3] = simvastatin 10 μM or tipifarnib 5 μM, 6 and 12 hours

## Cn1cncc1C(N)(c1ccc(Cl)cc1)c1ccc2c(c1)c(-c1cccc(Cl)c1)cc(=O)n2C (single isomer, unassigned; (+)) [tipifarnib, (+)-6-[amino(4-chlorophenyl)(1-methyl-1H-imidazol-5-yl)methyl]-4-(3-chlorophenyl)-1-methyl-2(1H)-quinolinone]
THP-1 cells [1]; [3]
  Induction of IL-8 by LPS: no significant effect
  STAT1 induction by LPS: inhibited
THP-1 cells [1]; simvastatin 10 μM or tipifarnib 5 μM, 3 hours
  Induction of IL-8 by LPS: unaffected
THP-1 cells [1]; simvastatin 10 μM or tipifarnib 5 μM, 6 hours
  peak of LPS-induced IL-6 transcription: inhibition
THP-1 cells [1]; simvastatin 10 μM or tipifarnib 5 μM, 12 hours
  LPS-induced IL-6 transcription: inhibition
THP-1 cells [1]; simvastatin 10 μM or tipifarnib 5 μM, after 6 and 12 hours
  LPS-induced IL-1β transcription: significantly downregulated
THP-1 cells [1]; simvastatin 10 μM or tipifarnib 5 μM, from 6 hours
  LPS-induced MCP-1 transcription: inhibited significantly
THP-1 cells [1]; simvastatin 10 μM or tipifarnib 5 μM, up to 3 hours
  LPS-induced IL-1β transcription: unaffected
THP-1 cells [1]; tipifarnib 5 μM, 6 and 12 hours
  MyD88 induction by LPS: almost complete inhibition
THP-1 cells [1]; tipifarnib 5 μM, 12 hours
  MMP-9 induction by LPS: no induction
THP-1 cells [2]
  IC50: ~1000 nM
Human PBMC; tipifarnib 2 μM, LPS 10 ng/ml, 10% FBS
  LPS-induced IL-6 production: no effect
Human PBMC; tipifarnib 5 μM, 24 hours, not statistically significant (P=0.104)
  IL-6 mean value lower than in absence of compound: approximately 40%
Human PBMC; tipifarnib 5 μM, after 16 and 40 hours
  LPS-induced IL-6 production: highly significant inhibition
cachexia
  cachexia: inhibition
